Tests used:
Mu-type opioid receptor [1] = target: T1, Mu-type opioid receptor (Homo sapiens, UniProt P35372); experiment: Displacement of [3H]DAMGO from mu opioid receptor expressed in HEK293 cells relative to DAMGO; format: cell-based; set-up: concentration or dose not given beside the values
[2] = target: T2, Kappa-type opioid receptor (Homo sapiens, UniProt P41145); experiment: Displacement of [3H]U69593 from kappa opioid receptor expressed in HEK293 cells relative to salvinorin A; format: cell-based; set-up: concentration or dose not given beside the values
[3] = target: T2, Kappa-type opioid receptor; experiment: Displacement of [3H]diprenorphine from kappa opioid receptor expressed in HEK293 cells relative to salvinorin A; format: cell-based; set-up: concentration or dose not given beside the values
[4] = target: T3, Delta-type opioid receptor (Homo sapiens, UniProt P41143); experiment: Displacement of [3H]DADLE from delta opioid receptor expressed in HEK293 cells relative to DADLE; format: cell-based; set-up: concentration or dose not given beside the values
[5] = Selectivity ratio of Ki for delta opioid receptor to Ki for kappa opioid receptor
[6] = Selectivity ratio of Ki for mu opioid receptor to Ki for kappa opioid receptor
Mu-type opioid receptor [7] = target: T1, Mu-type opioid receptor; experiment: Displacement of [3H]DAMGO from mu opioid receptor expressed in HEK293 cells; format: cell-based
[8] = target: T2, Kappa-type opioid receptor; experiment: Displacement of [3H]U69593 from kappa opioid receptor expressed in HEK293 cells; format: cell-based
[9] = target: T3, Delta-type opioid receptor; experiment: Displacement of [3H]DADLE from delta opioid receptor expressed in HEK293 cells; format: cell-based
[10] = target: T2, Kappa-type opioid receptor; experiment: Agonist activity at kappa opioid receptor expressed in HEK293 cells by [35S]GTPgammaS binding assay; format: functional, cell-based
[11] = target: T2, Kappa-type opioid receptor; experiment: Agonist activity at kappa opioid receptor expressed in HEK293 cells by [35S]GTPgammaS binding assay relative to salvinorin A; format: functional, cell-based

T3 sequence (P41143 whole entry): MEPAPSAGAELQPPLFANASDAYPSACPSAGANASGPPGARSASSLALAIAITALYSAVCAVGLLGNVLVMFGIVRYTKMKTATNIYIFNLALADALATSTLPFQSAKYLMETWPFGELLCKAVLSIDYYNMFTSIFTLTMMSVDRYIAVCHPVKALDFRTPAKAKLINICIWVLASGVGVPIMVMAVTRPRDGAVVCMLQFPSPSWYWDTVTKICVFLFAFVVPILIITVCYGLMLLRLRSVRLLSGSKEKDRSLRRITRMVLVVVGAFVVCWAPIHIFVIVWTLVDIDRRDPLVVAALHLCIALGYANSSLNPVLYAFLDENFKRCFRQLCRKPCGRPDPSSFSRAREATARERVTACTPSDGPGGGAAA
T2 sequence (P41145 whole entry): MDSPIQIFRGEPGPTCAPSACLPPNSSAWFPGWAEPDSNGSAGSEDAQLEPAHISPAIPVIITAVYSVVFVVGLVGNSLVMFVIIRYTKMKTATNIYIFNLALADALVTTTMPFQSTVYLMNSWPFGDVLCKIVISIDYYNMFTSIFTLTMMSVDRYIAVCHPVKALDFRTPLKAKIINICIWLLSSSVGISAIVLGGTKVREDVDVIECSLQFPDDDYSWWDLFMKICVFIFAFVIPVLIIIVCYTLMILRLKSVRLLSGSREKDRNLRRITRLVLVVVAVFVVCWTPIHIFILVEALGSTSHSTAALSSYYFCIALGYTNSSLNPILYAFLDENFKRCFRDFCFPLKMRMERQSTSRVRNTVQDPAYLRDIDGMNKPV
T1 sequence (P35372 whole entry): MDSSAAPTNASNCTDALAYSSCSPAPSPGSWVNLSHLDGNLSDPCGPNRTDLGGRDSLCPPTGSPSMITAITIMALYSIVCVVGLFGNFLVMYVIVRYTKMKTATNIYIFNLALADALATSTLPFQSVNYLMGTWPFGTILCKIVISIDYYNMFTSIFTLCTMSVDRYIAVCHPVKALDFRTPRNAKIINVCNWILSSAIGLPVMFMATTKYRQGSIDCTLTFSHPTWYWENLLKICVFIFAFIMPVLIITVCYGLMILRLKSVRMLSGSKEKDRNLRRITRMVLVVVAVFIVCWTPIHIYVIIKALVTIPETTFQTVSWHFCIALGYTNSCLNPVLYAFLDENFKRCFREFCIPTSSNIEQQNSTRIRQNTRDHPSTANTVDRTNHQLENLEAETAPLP

| SMILES | Activity (Mu-type opioid receptor [1]) | Activity [2] | Activity [3] | Activity [4] | Ratio Ki [5] | Ratio Ki [6] | Ki (Mu-type opioid receptor [7]) | Ki [8] | Ki [9] | EC50 [10] | Emax [10] | Emax [11] |
| --- | --- | --- | --- | --- | --- | --- | --- | --- | --- | --- | --- | --- |
| COC(=O)[C@@H]1C[C@H](OC(=O)[C@H](Cc2ccccc2)NC(=O)OCC2c3ccccc3-c3ccccc32)C(=O)[C@H]2[C@@]1(C)CC[C@H]1C(=O)O[C@H](c3ccoc3)C[C@]21C | 0.5% | 0% | 34% | 3% |  |  |  |  |  |  |  |  |
| COC(=O)[C@@H]1C[C@H](OC(=O)CNC(=O)OCC2c3ccccc3-c3ccccc32)C(=O)[C@H]2[C@@]1(C)CC[C@H]1C(=O)O[C@H](c3ccoc3)C[C@]21C | 20% | 4% | 10% | 16% |  |  |  |  |  |  |  |  |
| COC(=O)[C@@H]1C[C@H](OC(=O)[C@@H](N)Cc2ccccc2)C(=O)[C@H]2[C@@]1(C)CC[C@H]1C(=O)O[C@H](c3ccoc3)C[C@]21C | -6% | 19% | 0% | 13% |  |  |  |  |  |  |  |  |
| COC(=O)[C@@H]1C[C@H](OC(=O)CN)C(=O)[C@H]2[C@@]1(C)CC[C@H]1C(=O)O[C@H](c3ccoc3)C[C@]21C | -5% | 41% | 0% | 17% |  |  |  |  |  |  |  |  |
| COC(=O)[C@@H]1C[C@H](OC(=O)[C@@H](NC(=O)OCC2c3ccccc3-c3ccccc32)[C@H](C)OC(C)(C)C)C(=O)[C@H]2[C@@]1(C)CC[C@H]1C(=O)O[C@H](c3ccoc3)C[C@]21C | 18% | 28% | 12% | 8% |  |  |  |  |  |  |  |  |
| COC(=O)[C@@H]1C[C@H](OC(=O)CCCNC(=O)OCC2c3ccccc3-c3ccccc32)C(=O)[C@H]2[C@@]1(C)CC[C@H]1C(=O)O[C@H](c3ccoc3)C[C@]21C | 27% | 10% | 0% | 24% |  |  |  |  |  |  |  |  |
| COC(=O)[C@@H]1C[C@H](OC(=O)CCCN)C(=O)[C@H]2[C@@]1(C)CC[C@H]1C(=O)O[C@H](c3ccoc3)C[C@]21C | 1% | 48% | 0% | 28% |  |  |  |  |  |  |  |  |
| Oc1ccc2c3c1O[C@H]1c4[nH]c5ccccc5c4C[C@@]4(O)[C@@H](C2)N(CC2CC2)CC[C@]314 |  |  |  | 100% |  |  |  |  |  |  |  |  |
| COC(=O)[C@@H]1C[C@H](OC(=O)[C@H](C)N)C(=O)[C@H]2[C@@]1(C)CC[C@H]1C(=O)O[C@H](c3ccoc3)C[C@]21C | -1.6% | 82% | 0% | 18% | > 2.64 | > 2.64 | > 10 µM | 3.78 µM | > 10 µM |  |  |  |
| COC(=O)[C@@H]1C[C@H](OC(=O)[C@@H](NC(=O)OCC2c3ccccc3-c3ccccc32)C(C)C)C(=O)[C@H]2[C@@]1(C)CC[C@H]1C(=O)O[C@H](c3ccoc3)C[C@]21C | 15% | 39% | 0% | 22% |  |  |  |  |  |  |  |  |
| COC(=O)[C@@H]1C[C@H](OC(=O)[C@H](C)NC(=O)OCC2c3ccccc3-c3ccccc32)C(=O)[C@H]2[C@@]1(C)CC[C@H]1C(=O)O[C@H](c3ccoc3)C[C@]21C | 24% | 21% | 0% | 15% |  |  |  |  |  |  |  |  |
| COC(=O)[C@@H]1C[C@H](OC(=O)[C@@H](N)C(C)C)C(=O)[C@H]2[C@@]1(C)CC[C@H]1C(=O)O[C@H](c3ccoc3)C[C@]21C | 5% | 103% | 91% | 48% | > 238 | > 238 | > 10 µM | 0.042 µM | > 10 µM | 0.213 µM | 828% | 118% |
| COC(=O)[C@@H]1C[C@H](OC(=O)[C@@H](N)[C@H](C)OC(C)(C)C)C(=O)[C@H]2[C@@]1(C)CC[C@H]1C(=O)O[C@H](c3ccoc3)C[C@]21C | 2% | 6% | 0% | 11% |  |  |  |  |  |  |  |  |
